Experimental data: PubChem BioAssay AID248 (DTP/NCI, 2004)
Several values for one entry are separate records, joined by “and”; a condition that tells them apart may be missing. Identical values can stand only once. Inconclusive results and toxic doses are left out. Rule as the data show it: active = T/C of 150% or more; inactive = T/C below 125%.

System: L1210 leukemia ip in BDF1 mice, survival T/C
Experiment: NCI In Vivo Anticancer Drug Screen. Data for tumor model L1210 Leukemia (intraperitoneal) in B6D2F1 (BDF1) mice
Details: endpoint: mean survival time, higher = longer survival
Outline: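 Tumor cells were implanted, animals were treated, and survival was followed. The result divides the treated measurement by the vehicle-control measurement.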

[1] = dose: 100.0 mg/kg/injection, schedule: Q01DX009 (ip), vehicle: Klucel (hydroxypropylcellulose) (HPC)
[2] = dose: 100.0 mg/kg/injection, schedule: Q04DX003 (ip), vehicle: Klucel (hydroxypropylcellulose) (HPC)
[3] = dose: 200.0 mg/kg/injection, schedule: Q01DX009 (ip), vehicle: Klucel (hydroxypropylcellulose) (HPC)
[4] = dose: 200.0 mg/kg/injection, schedule: Q04DX003 (ip), vehicle: Klucel (hydroxypropylcellulose) (HPC)
[5] = dose: 100.0 mg/kg/injection, schedule: Q04DX002 (ip), vehicle: Klucel (hydroxypropylcellulose) (HPC)
[6] = dose: 200.0 mg/kg/injection, schedule: Q04DX002 (ip), vehicle: Klucel (hydroxypropylcellulose) (HPC)
[7] = dose: 400.0 mg/kg/injection, schedule: Q04DX002 (ip), vehicle: Klucel (hydroxypropylcellulose) (HPC)
[8] = dose: 100.0 mg/kg/injection, schedule: Q04DX002 (ip), vehicle: saline with Tween-80
[9] = dose: 200.0 mg/kg/injection, schedule: Q04DX002 (ip), vehicle: saline with Tween-80
[10] = dose: 100.0 mg/kg/injection, schedule: Q01DX001 (ip), vehicle: saline
[11] = dose: 100.0 mg/kg/injection, schedule: Q01DX009 (ip), vehicle: saline with Tween-80
[12] = dose: 100.0 mg/kg/injection, schedule: Q04DX003 (ip), vehicle: saline

Measured: T/C

Nc1ccc(-c2ccc(N)cc2I)c(I)c1
inactive: dose: 25.6 mg/kg/injection, schedule: Q04DX002 (ip), vehicle: saline with Tween-80 100 % of control | dose: 64.0 mg/kg/injection, schedule: Q04DX002 (ip), vehicle: saline with Tween-80 95 % of control | dose: 160.0 mg/kg/injection, schedule: Q04DX002 (ip), vehicle: saline with Tween-80 100 % of control | dose: 400.0 mg/kg/injection, schedule: Q04DX002 (ip), vehicle: saline with Tween-80 103 % of control

CC/C=C(\C)C1(CCC)C(N)=NC(=O)N=C1N
inactive: dose: 75.0 mg/kg/injection, schedule: Q01DX001 (ip), vehicle: carboxymethylcellulose (CMC) 93 % of control | dose: 150.0 mg/kg/injection, schedule: Q01DX001 (ip), vehicle: carboxymethylcellulose (CMC) 91 % of control

O=C(O)c1c(O)c(-c2ccccc2)nc2ccccc12
inactive: dose: 25.0 mg/kg/injection, schedule: Q01DX001 (ip), vehicle: Klucel (hydroxypropylcellulose) (HPC) 90 % of control | dose: 50.0 mg/kg/injection, schedule: Q01DX001 (ip), vehicle: Klucel (hydroxypropylcellulose) (HPC) 102 % of control | dose: 50.0 mg/kg/injection, schedule: Q01DX009 (ip), vehicle: Klucel (hydroxypropylcellulose) (HPC) 101 % of control | dose: 100.0 mg/kg/injection, schedule: Q01DX001 (ip), vehicle: Klucel (hydroxypropylcellulose) (HPC) 86 % of control | [1] 100 % of control | [2] 98 % of control | [3] 103 % of control | [4] 100 % of control

O=C(Oc1ccc(S(=O)(=O)F)cc1Cl)c1ccc([N+](=O)[O-])cc1
inactive: [5] 118 % of control | [6] 96 % of control | [7] 96 % of control

COC(=O)c1ccccc1N=NNc1ccccc1C(=O)OC
inactive: [8] 92 % of control | [2] 107 % of control | [9] 89 % of control | [4] 111 % of control | dose: 400.0 mg/kg/injection, schedule: Q04DX003 (ip), vehicle: Klucel (hydroxypropylcellulose) (HPC) 98 % of control

O=C(O)CN1C(=O)OC(c2ccccc2)C1=O (stereo unspecified)
inactive: [1] 101 % of control | [3] 97 % of control | dose: 400.0 mg/kg/injection, schedule: Q01DX009 (ip), vehicle: Klucel (hydroxypropylcellulose) (HPC) 86 % of control

Cc1cc(Cl)ccc1OCC(=O)Oc1c(Cl)c(Cl)c(Cl)c(Cl)c1Cl
inactive: [5] 93 % of control | [6] 112 % of control

CC(C)c1ccc(/C=C/C(=O)O)cc1
inactive: dose: 50.0 mg/kg/injection, schedule: Q01DX001 (ip), vehicle: carboxymethylcellulose (CMC) 108 % of control | dose: 100.0 mg/kg/injection, schedule: Q01DX001 (ip), vehicle: carboxymethylcellulose (CMC) 97 % of control | dose: 200.0 mg/kg/injection, schedule: Q01DX001 (ip), vehicle: carboxymethylcellulose (CMC) 92 % of control | dose: 400.0 mg/kg/injection, schedule: Q01DX001 (ip), vehicle: carboxymethylcellulose (CMC) 101 % of control

CSC(NC(=O)c1ccccc1)C(N)=O (stereo unspecified)
inactive: [5] 101 % of control | [6] 109 % of control | [7] 97 % of control

CN(C)c1ccc(/C(=N\O)C(=O)O)cc1
inactive: dose: 50.0 mg/kg/injection, schedule: Q01DX001 (ip), vehicle: saline 107 % of control | [10] 105 % of control | dose: 200.0 mg/kg/injection, schedule: Q01DX001 (ip), vehicle: saline 100 % of control

CC(=N\N)/C(C)=N/N
inactive: dose: 6.25 mg/kg/injection, schedule: Q01DX009 (ip), vehicle: saline with Tween-80 102 % of control | dose: 12.5 mg/kg/injection, schedule: Q01DX009 (ip), vehicle: saline with Tween-80 100 % of control | dose: 25.0 mg/kg/injection, schedule: Q01DX009 (ip), vehicle: saline with Tween-80 107 % of control

CN(C)NCCOC(c1ccccc1)c1ccccc1
inactive: dose: 25.0 mg/kg/injection, schedule: Q04DX002 (ip), vehicle: Klucel (hydroxypropylcellulose) (HPC) 102 % of control | dose: 50.0 mg/kg/injection, schedule: Q04DX002 (ip), vehicle: Klucel (hydroxypropylcellulose) (HPC) 106 % of control | [5] 95 % of control and 108 % of control

NC(N)=N/N=C/C(Cl)(Cl)Cl
inactive: dose: 15.0 mg/kg/injection, schedule: Q01DX Z (ip), vehicle: saline 87 % of control | dose: 30.0 mg/kg/injection, schedule: Q01DX Z (ip), vehicle: saline 103 % of control | dose: 60.0 mg/kg/injection, schedule: Q01DX Z (ip), vehicle: saline 95 % of control | dose: 60.0 mg/kg/injection, schedule: Q01DX Z (oral), vehicle: saline 97 % of control | dose: 120.0 mg/kg/injection, schedule: Q01DX Z (oral), vehicle: saline 97 % of control | dose: 240.0 mg/kg/injection, schedule: Q01DX Z (oral), vehicle: saline 95 % of control | dose: 480.0 mg/kg/injection, schedule: Q01DX Z (oral), vehicle: saline 98 % of control

O=C(COc1ccc(Cl)c(Cl)c1)Nc1ccc[n+](Cc2ccc(S(=O)(=O)F)cc2Cl)c1
inactive: [11] 94 % of control

CCN(CC)N=Nc1ccccc1-c1nc(N)c2ccccc2n1
inactive: [2] 95 % of control | [4] 98 % of control

CCCn1c(=S)[nH]c2ccccc2c1=O
inactive: dose: 100.0 mg/kg/injection, schedule: Q01DX009 (ip), vehicle: saline 95 % of control | [12] 88 % of control | dose: 200.0 mg/kg/injection, schedule: Q01DX009 (ip), vehicle: saline 107 % of control | dose: 200.0 mg/kg/injection, schedule: Q04DX003 (ip), vehicle: saline 86 % of control | dose: 400.0 mg/kg/injection, schedule: Q01DX009 (ip), vehicle: saline 101 % of control | dose: 400.0 mg/kg/injection, schedule: Q04DX003 (ip), vehicle: saline 96 % of control

CN(C)c1ccc(C(=O)O)cc1
inactive: dose: 100.0 mg/kg/injection, schedule: Q01DX009 (ip), vehicle: other 93 % of control | dose: 100.0 mg/kg/injection, schedule: Q04DX003 (ip), vehicle: other 104 % of control | dose: 200.0 mg/kg/injection, schedule: Q01DX009 (ip), vehicle: other 87 % of control | dose: 200.0 mg/kg/injection, schedule: Q04DX003 (ip), vehicle: other 107 % of control | dose: 400.0 mg/kg/injection, schedule: Q01DX009 (ip), vehicle: other 96 % of control | dose: 400.0 mg/kg/injection, schedule: Q04DX003 (ip), vehicle: other 95 % of control

CCN1CCC(CN2c3ccccc3Sc3ccccc32)C1 (stereo unspecified)
inactive: dose: 25.0 mg/kg/injection, schedule: Q01DX009 (ip), vehicle: saline 105 % of control | dose: 25.0 mg/kg/injection, schedule: Q04DX003 (ip), vehicle: saline 94 % of control | dose: 50.0 mg/kg/injection, schedule: Q01DX009 (ip), vehicle: saline 110 % of control | dose: 50.0 mg/kg/injection, schedule: Q04DX003 (ip), vehicle: saline 102 % of control | [10] 98 % of control | [12] 112 % of control

NC(=O)C(Cc1cnc[nH]1)NC(=O)OCc1ccccc1 (stereo unspecified)
inactive: [11] 91 % of control | dose: 200.0 mg/kg/injection, schedule: Q01DX009 (ip), vehicle: saline with Tween-80 96 % of control | dose: 400.0 mg/kg/injection, schedule: Q01DX009 (ip), vehicle: saline with Tween-80 105 % of control

O=C(O)c1cc([N+](=O)[O-])cc([N+](=O)[O-])c1O
inactive: [8] 113 % of control | [9] 104 % of control
